Data on 21 compounds can be found in patent US11174250B2, “Substituted carboxamides as inhibitors of WDR5 protein-protein binding” (PROPELLON THERAPEUTICS INC., priority 2016, dated 2021).

Like-named read-outs stand apart in the source and are kept apart here. Some results are limits rather than exact numbers.

The target in one assay is WDR5 protein (Homo sapiens (Human), UniProt P61964). The assay can be described thus: Surface Plasmon Resonance (SPR) assay. In kind it is binding. Particulars: SPR; for residence time: τ=1/koff, read-out: Residence Time (t, min).
For the next assay, the target named is MLL1-WRAD2 complex (Homo sapiens (Human), UniProt P61964). The assay can be described thus: MLL1-WRAD2 enzyme assay (in vitro methyl transferase assay). In kind it is biochemical. The protocol: Reaction was initiated with 1 μM 3H-SAM and incubated for 1 hour at 30° C. Reaction mixture was transferred to P81 filter-paper and washed with PBS before detection.

Setting [1] is: Table 1, read-out: WDR5 binding affinity (KD).
Where [2] appears, read: Table 2, read-out: WDR5 binding affinity SPR (KD).
Where [3] appears, read: MLL1-WRAD2 assay, read-out: In vitro MLL1 activity (IC50).

A word on the Kd: it is the constant that tells how readily two partners part at equilibrium. As a reminder, the residence time is how long the partners stay bound on average. A word on the IC50: it is the concentration that gives 50% inhibition. `Cc1cc(C(=O)Nc2cc(-c3cc(CN4CCOCC4)ccc3F)ccc2N2CCN(C)CC2)cc(C)c1F` [Example 11, 4-fluoro-N-(2′-fluoro-4-(4-methylpiperazin-1-yl)-5′-(morpholinomethyl)-[1,1′-biphenyl]-3-yl)-3,5-dimethylbenzamide]: the Kd at WDR5 protein (setting [1]) and at WDR5 protein (setting [2]) was 6 nM throughout. Also, the residence time at WDR5 protein is 1.04 min. In addition, the concentration for half-maximal inhibition (IC50) at MLL1-WRAD2 complex (setting [3]) came out at 4430 nM.

As to `C[C@@H]1CN(c2ccc(-c3cc(C(=O)NC4CC4)ccc3F)cc2NC(=O)c2c[nH]c(=O)cc2C(F)(F)F)C[C@H](C)N1C` [Example 93, N-(5′-(cyclopropylcarbamoyl)-2′-fluoro-4-((3S,5R)-3,4,5-trimethylpiperazin-1-yl)-[1,1′-biphenyl]-3-yl)-6-oxo-4-(trifluoromethyl)-1,6-dihydropyridine-3-carboxamide], the dissociation constant Kd on WDR5 protein (setting [1]) turned out to be 3.1 nM; at WDR5 protein (setting [2]), 3 nM. Also, the residence time on WDR5 protein stood at 9.6 min. Also, at MLL1-WRAD2 complex (setting [3]), the IC50 was found to be 197 nM.

For the compound `CN1CCN(c2ccc(-c3ccc(OC4CCOCC4)nc3F)cc2NC(=O)c2c[nH]c(=O)cc2C(F)(F)F)CC1` [Example 8, N-(5-(2-fluoro-6-((tetrahydro-2H-pyran-4-yl)oxy)pyridin-3-yl)-2-(4-methylpiperazin-1-yl)phenyl)-6-oxo-4-(trifluoromethyl)-1,6-dihydropyridine-3-carboxamide], the Kd on WDR5 protein (setting [1]) and on WDR5 protein (setting [2]) was 5 nM each time. Further, the residence time at WDR5 protein is 5.85 min. Moreover, the half-inhibitory concentration (IC50) at MLL1-WRAD2 complex (setting [3]) came to 1480 nM.

Take `CN1CCN(c2ccc(-c3ccc(CNC4CCCCC4)cc3F)cc2NC(=O)c2c[nH]c(=O)cc2C(F)(F)F)CC1` [Example 34, N-(4′-((cyclohexylamino)methyl)-2′-fluoro-4-(4-methylpiperazin-1-yl)-[1,1′-biphenyl]-3-yl)-6-oxo-4-(trifluoromethyl)-1,6-dihydropyridine-3-carboxamide]: the Kd on WDR5 protein (setting [1]) and on WDR5 protein (setting [2]) was 21 nM each time. Moreover, the residence time on WDR5 protein is 0.26 min. The IC50 on MLL1-WRAD2 complex (setting [3]) turned out to be 13700 nM.

Take `Cc1cc(C(=O)Nc2cc(-c3cc(CN4CCOCC4)ccc3F)ccc2N2CCN(C)CC2)cc(C(F)(F)F)c1F` [Example 41, 4-fluoro-N-(2′-fluoro-4-(4-methylpiperazin-1-yl)-5′-(morpholinomethyl)-[1,1′-biphenyl]-3-yl)-3-methyl-5-(trifluoromethyl)benzamide]: the Kd at WDR5 protein (setting [1]) and at WDR5 protein (setting [2]) was 55 nM in each case. The residence time on WDR5 protein worked out at 0.77 min. In addition, the IC50 at MLL1-WRAD2 complex (setting [3]) was over 30000 nM.

Turning to `CN1CCN(c2ccc(-c3cc(CNC(C)(C)C)ccc3F)cc2NC(=O)c2c[nH]c(=O)cc2C(F)(F)F)CC1` [Example 35, N-(5′-((tert-butylamino)methyl)-2′-fluoro-4-(4-methylpiperazin-1-yl)-[1,1′-biphenyl]-3-yl)-6-oxo-4-(trifluoromethyl)-1,6-dihydropyridine-3-carboxamide], the Kd at WDR5 protein (setting [1]) and at WDR5 protein (setting [2]) was 9 nM each time. Further, the residence time on WDR5 protein is 4.59 min. Besides, the IC50 on MLL1-WRAD2 complex (setting [3]) was 2390 nM.

Regarding `C[C@@H]1CN(c2ccc(-c3cc(CN4CCOCC4)cnc3F)cc2NC(=O)c2c[nH]c(=O)cc2C(F)(F)F)C[C@H](C)N1C` [Example 60, N-(5-(2-fluoro-5-(morpholinomethyl)pyridin-3-yl)-2-((3S,5R)-3,4,5-trimethylpiperazin-1-yl)phenyl)-6-oxo-4-(trifluoromethyl)-1,6-dihydropyridine-3-carboxamide], the Kd on WDR5 protein (setting [1]) and at WDR5 protein (setting [2]) was 7 nM each time. For the same compound, the residence time at WDR5 protein amounted to 9.5 min. For the same compound, at MLL1-WRAD2 complex (setting [3]), the IC50 turned out to be 1410 nM.

On to `CCN1CCN(c2ccc(-c3cc(CN4CCOCC4)ccc3F)cc2NC(=O)c2c[nH]c(=O)cc2C(F)(F)F)CC1` [Example 62, N-(4-(4-ethylpiperazin-1-yl)-2′-fluoro-5′-(morpholinomethyl)-[1,1′-biphenyl]-3-yl)-6-oxo-4-(trifluoromethyl)-1,6-dihydropyridine-3-carboxamide], for which the Kd at WDR5 protein (setting [1]) and at WDR5 protein (setting [2]) was over 200 nM in each case. The IC50 at MLL1-WRAD2 complex (setting [3]) was found to be 13500 nM.

For the compound `CN1CCN(c2ccc(-c3cc(CN4CCOCC4)ccc3F)cc2NC(=O)c2c[nH]c(=O)cc2C(F)(F)F)CC1` [drawing 289], the IC50 at MLL1-WRAD2 complex (Table 4, effect of Fluoro-substitution, read-out: IC50 (MLL1)) was 939 nM.

`CN(C)C1CCN(c2ccc(-c3cc(CN4CCOCC4)ccc3F)cc2NC(=O)c2c[nH]c(=O)cc2C(F)(F)F)C1` (centres unmarked) [Example 87, N-(4-(3-(dimethylamino)pyrrolidin-1-yl)-2′-fluoro-5′-(morpholinomethyl)-[1,1′-biphenyl]-3-yl)-6-oxo-4-(trifluoromethyl)-1,6-dihydropyridine-3-carboxamide]: at MLL1-WRAD2 complex (setting [3]), the IC50 was found to be 3890 nM.

In the case of `COc1cc(C(F)(F)F)c(C(=O)Nc2cc(-c3cc(CN(C)[C@H]4CCOC4)ccc3F)ccc2N2CCN(C)CC2)cn1` [Example 58, (S)—N-(2′-fluoro-5′-((methyl(tetrahydrofuran-3-yl)amino)methyl)-4-(4-methylpiperazin-1-yl)-[1,1′-biphenyl]-3-yl)-6-methoxy-4-(trifluoromethyl)nicotinamide], the Kd on WDR5 protein (setting [1]) and on WDR5 protein (setting [2]) was over 200 nM throughout.

In the case of `COc1cc(C(F)(F)F)c(C(=O)Nc2cc(-c3cc(CN4CCOC(C)(C)C4)ccc3F)ccc2N2CCN(C)CC2)cn1` [Example 59, N-(5′-((2,2-dimethylmorpholino)methyl)-2′-fluoro-4-(4-methylpiperazin-1-yl)-[1,1′-biphenyl]-3-yl)-6-methoxy-4-(trifluoromethyl)nicotinamide], the Kd at WDR5 protein (setting [1]) and on WDR5 protein (setting [2]) was over 200 nM throughout.

`COc1cc(C(F)(F)F)c(C(=O)Nc2cc(-c3cc(CN4CCC(F)CC4)ccc3F)ccc2N2CCN(C)CC2)cn1` [Example 55, N-(2′-fluoro-5′-((4-fluoropiperidin-1-yl)methyl)-4-(4-methylpiperazin-1-yl)-[1,1′-biphenyl]-3-yl)-6-methoxy-4-(trifluoromethyl)nicotinamide]: the Kd on WDR5 protein (setting [1]) and at WDR5 protein (setting [2]) was over 200 nM throughout.

As to `Cc1cc(C(=O)Nc2cc(-c3cc(CN4CCOCC4)ccc3F)ccc2N2CC3CN(C)CC3C2)cc(C)c1F` (centres unmarked) [Example 94, 4-fluoro-N-(2′-fluoro-4-(5-methylhexahydropyrrolo[3,4-c]pyrrol-2(1H)-yl)-5′-(morpholinomethyl)-[1,1′-biphenyl]-3-yl)-3,5-dimethylbenzamide], the Kd at WDR5 protein (setting [1]) and at WDR5 protein (setting [2]) was over 200 nM throughout.

For the compound `C[C@@H]1CN(c2ccc(-c3cc(CNC4CCCCC4)c(F)cc3F)cc2NC(=O)c2c[nH]c(=O)cc2C(F)(F)F)C[C@H](C)N1C` [Example 79, N-(5′-((cyclohexylamino)methyl)-2′,4′-difluoro-4-((3S,5R)-3,4,5-trimethylpiperazin-1-yl)-[1,1′-biphenyl]-3-yl)-6-oxo-4-(trifluoromethyl)-1,6-dihydropyridine-3-carboxamide], the Kd at WDR5 protein (setting [1]) and at WDR5 protein (setting [2]) was 2.5 nM in each case. Further, on WDR5 protein, the residence time is 16.4 min.

As for `CN1CCCN(c2ccc(-c3cc(CN4CCOCC4)ccc3F)cc2NC(=O)c2c[nH]c(=O)cc2C(F)(F)F)CC1` [Example 88, N-(2′-fluoro-4-(4-methyl-1,4-diazepan-1-yl)-5′-(morpholinomethyl)-[1,1′-biphenyl]-3-yl)-6-oxo-4-(trifluoromethyl)-1,6-dihydropyridine-3-carboxamide], the Kd at WDR5 protein (setting [1]) and on WDR5 protein (setting [2]) was 18 nM throughout. In addition, the residence time at WDR5 protein is 1.71 min.

With `CN1CCN(c2ccc(-c3cc(CN4CCOCC4)ccc3F)cc2NC(=O)c2cc(F)cc3[nH]cnc23)CC1` [Example 102, 6-fluoro-N-(2′-fluoro-4-(4-methylpiperazin-1-yl)-5′-(morpholinomethyl)-[1,1′-biphenyl]-3-yl)-1H-benzo[d]imidazole-4-carboxamide], the Kd on WDR5 protein (setting [1]) and at WDR5 protein (setting [2]) was over 200 nM throughout.

For `C[C@@H]1CN(c2ccc(-c3ccc(C(=O)NC(C)(C)CC(C)(C)C)c(F)c3F)cc2NC(=O)c2c[nH]c(=O)cc2C(F)(F)F)C[C@H](C)N1C` [Example 122, N-(2′,3′-difluoro-4′-((2,4,4-trimethylpentan-2-yl)carbamoyl)-4-((3S,5R)-3,4,5-trimethylpiperazin-1-yl)-[1,1′-biphenyl]-3-yl)-6-oxo-4-(trifluoromethyl)-1,6-dihydropyridine-3-carboxamide], the values for the Kd on WDR5 protein (setting [1]) and on WDR5 protein (setting [2]) were 7.6 nM and 8 nM, respectively. Further, at WDR5 protein, the residence time stood at 6.7 min.

As to `C[C@@H]1CN(c2ccc(-c3ccc(F)c(CN(C)C4COC4)c3F)cc2NC(=O)c2c[nH]c(=O)cc2C(F)(F)F)C[C@H](C)N1C` [Example 112, N-(2′,4′-difluoro-3′-((methyl(oxetan-3-yl)amino)methyl)-4-((3S,5R)-3,4,5-trimethylpiperazin-1-yl)-[1,1′-biphenyl]-3-yl)-6-oxo-4-(trifluoromethyl)-1,6-dihydropyridine-3-carboxamide], the Kd on WDR5 protein (setting [1]) and on WDR5 protein (setting [2]) was 23 nM throughout. For the same compound, the residence time at WDR5 protein turned out to be 1.3 min.

In the case of `COc1cccc(C(=O)Nc2cc(-c3cc(CN4CCOCC4)ccc3F)ccc2N2CCN(C)CC2)c1` [Example 10, N-(2′-fluoro-4-(4-methylpiperazin-1-yl)-5′-(morpholinomethyl)-[1,1′-biphenyl]-3-yl)-3-methoxybenzamide], the dissociation constant Kd at WDR5 protein (setting [1]) and at WDR5 protein (setting [2]) was 1000 nM in each case.

For `Cc1cccc(C(=O)Nc2cc(-c3cc(CN4CCOCC4)ccc3F)ccc2N2CCN(C)CC2)c1` [Example 24, N-(2′-fluoro-4-(4-methylpiperazin-1-yl)-5′-(morpholinomethyl)-[1,1′-biphenyl]-3-yl)-3-methylbenzamide], the equilibrium dissociation constant (Kd) on WDR5 protein (setting [1]) and at WDR5 protein (setting [2]) was 5030 nM throughout.
